Like-named read-outs stand apart in the source and are kept apart here.
Columns and labels:
Assay in all cases: Cell surface BCMA by FACS
Format in all cases: cell-based, human
[1] = tested on: SR cells (Anaplastic Large Cell Lymphoma); details: for EC50: Homo sapiens
Procedure: (§1) […] cell lines, comprising 9 subtypes of lymphomas (see Table 1), were seeded at 1×10^5 cells/well in a total volume of 250 μl into a 96-well plate. The cells were cultured in RPMI medium supplemented with 10% FCS. Compound (22) was added to the cell cultures at a concentration of 10 μM, 1 μM, 100 nM, 10 nM, 1 nM, 100 pM, 10 pM, 1 pM, and 100 fM, and cell lines (8 from Hadassah Medical Center, 31 from Eurofins) were incubated at 37° C. for 24 hours with Compound (22). Following incubation, the cells were collected and BCMA levels were evaluated on the cell surface for cell-bound BCMA. Cells were stained with an anti-BCMA antibody (PE anti-human 19F2 BCMA, Biolegend), and cell surface BCMA levels were determined by FACS analysis (Mean Fluorescence Intensity. Soluble BCMA levels were analyzed by ELISA (Human BCMA/TNFRSF17 DuoSet kit: R&D Systems).

ST486 cells (DLBCL) = details: for EC50: Homo sapiens
Procedure: as §1

[2] = tested on: EB-2 cells (Burkitt's Lymphoma); details: for EC50: Homo sapiens
Procedure: as §1

SUDHL-10 cells (DLBCL) = details: for EC50: Homo sapiens
Procedure: as §1

[3] = tested on: BCP-1 cells (B-cell Lymphoma); details: for EC50: Homo sapiens
Procedure: as §1

[4] = tested on: REC-1 cells (Mantle Cell Lymphoma); details: for EC50: Homo sapiens
Procedure: as §1

DB cells (DLBCL) = details: for EC50: Homo sapiens
Procedure: as §1

[5] = tested on: TUR cells (Histiocytic Lymphoma); details: for EC50: Homo sapiens
Procedure: as §1

[6] = tested on: Ramos cells (Burkitt's Lymphoma); details: for EC50: Homo sapiens
Procedure: as §1

[7] = tested on: Daudi cells (Burkitt's Lymphoma); details: for EC50: Homo sapiens
Procedure: as §1

SUDHL-8 cells (DLBCL) = details: for EC50: Homo sapiens
Procedure: as §1

HT cells (DLBCL) = details: for EC50: Homo sapiens
Procedure: as §1

[8] = tested on: GA-10 cells (Burkitt's Lymphoma); details: for EC50: Homo sapiens
Procedure: as §1

[9] = tested on: H9 cells (Cutaneous T-cell Lymphoma); details: for EC50: Homo sapiens
Procedure: as §1

[10] = tested on: CA46 cells (Burkitt's Lymphoma); details: for EC50: Homo sapiens
Procedure: as §1

[11] = tested on: U937 cells (Histiocytic Lymphoma); details: for EC50: Homo sapiens
Procedure: as §1

[12] = tested on: L-248 cells (Hodgkin's Lymphoma); details: for EC50: Homo sapiens
Procedure: as §1

[13] = tested on: JVM-2 cells (Mantle Cell Lymphoma); details: for EC50: Homo sapiens
Procedure: as §1

[14] = tested on: SUDHL-4 (Eurofins) cells (DLBCL); printed SUDHL in Table 1; details: for EC50: Homo sapiens, SU-DHL-4
Procedure: as §1

[15] = 24 h, read-out: BCMA (Mean Fluorescence Intensity) EC50

Structure (SMILES): Cc1cccc2c1NC(=O)[C@@H](NC(=O)[C@H](CCC(F)(F)F)[C@H](CCC(F)(F)F)C(N)=O)N=C2c1cccc(F)c1 [Compound (22), (2R,3S)—N-((3S)-5-(3-fluorophenyl)-9-methyl-2-oxo-2,3-dihydro-1H-1,4-benzodiazepin-3-yl)-2,3-bis(3,3,3-trifluoropropyl)succinamide]
- mBCMA (MFI) Fold Increase [1]: 1.0 fold
- BCMA (Mean Fluorescence Intensity) 1 nM Compound (22) ([1]; 1 nM, 24 h): 289
- BCMA (Mean Fluorescence Intensity) 100 nM Compound (22) ([1]; 100 nM, 24 h): 293
- EC50 [1, 15]: > 10000 nM
- EC50 ([1]; read-out: mBCMA (MFI) EC50): > 10000 nM
- mBCMA (MFI) Fold Increase (ST486 cells (DLBCL)): 4.5 fold
- BCMA (Mean Fluorescence Intensity) 1 nM Compound (22) (ST486 cells (DLBCL); 1 nM, 24 h): 10564
- BCMA (Mean Fluorescence Intensity) 100 nM Compound (22) (ST486 cells (DLBCL); 100 nM, 24 h): 13410
- EC50 (ST486 cells (DLBCL); [15]): 0.58 nM
- EC50 (ST486 cells (DLBCL); read-out: mBCMA (MFI) EC50): 0.58 nM
- mBCMA (MFI) Fold Increase [2]: 5.4 fold
- BCMA (Mean Fluorescence Intensity) 1 nM Compound (22) ([2]; 1 nM, 24 h): 18536
- BCMA (Mean Fluorescence Intensity) 100 nM Compound (22) ([2]; 100 nM, 24 h): 28188
- EC50 ([2]; EB2, 24 h, read-out: BCMA (Mean Fluorescence Intensity) EC50): 0.98 nM
- EC50 ([2]; EB2, read-out: mBCMA (MFI) EC50): 0.98 nM
- mBCMA (MFI) Fold Increase (SUDHL-10 cells (DLBCL)): 6.7 fold
- BCMA (Mean Fluorescence Intensity) 1 nM Compound (22) (SUDHL-10 cells (DLBCL); 1 nM, 24 h): 6061
- BCMA (Mean Fluorescence Intensity) 100 nM Compound (22) (SUDHL-10 cells (DLBCL); 100 nM, 24 h): 7822
- EC50 (SUDHL-10 cells (DLBCL); SU-DHL10, 24 h, read-out: BCMA (Mean Fluorescence Intensity) EC50): 5.9 nM
- EC50 (SUDHL-10 cells (DLBCL); SU-DHL10, read-out: mBCMA (MFI) EC50): 5.9 nM
- mBCMA (MFI) Fold Increase [3]: 2.9 fold
- BCMA (Mean Fluorescence Intensity) 1 nM Compound (22) ([3]; 1 nM, 24 h): 398
- BCMA (Mean Fluorescence Intensity) 100 nM Compound (22) ([3]; 100 nM, 24 h): 1159
- cell-bound BCMA ([3]; FIG. 6A): increased cell-bound BCMA
- EC50 [3, 15]: 45.6 nM
- EC50 ([3]; read-out: mBCMA (MFI) EC50): 45.6 nM
- mBCMA (MFI) Fold Increase [4]: 1.0 fold
- BCMA (Mean Fluorescence Intensity) 1 nM Compound (22) ([4]; 1 nM, 24 h): 217
- BCMA (Mean Fluorescence Intensity) 100 nM Compound (22) ([4]; 100 nM, 24 h): 243
- EC50 ([4]; Rec1, 24 h, read-out: BCMA (Mean Fluorescence Intensity) EC50): > 10000 nM
- EC50 ([4]; Rec1, read-out: mBCMA (MFI) EC50): > 10000 nM
- mBCMA (MFI) Fold Increase (DB cells (DLBCL)): 4.1 fold
- BCMA (Mean Fluorescence Intensity) 1 nM Compound (22) (DB cells (DLBCL); 1 nM, 24 h): 870
- BCMA (Mean Fluorescence Intensity) 100 nM Compound (22) (DB cells (DLBCL); 100 nM, 24 h): 1827
- cell-bound BCMA (DB cells (DLBCL); FIG. 9A): increased cell-bound BCMA
- EC50 (DB cells (DLBCL); [15]): 4.9 nM
- EC50 (DB cells (DLBCL); read-out: mBCMA (MFI) EC50): 4.9 nM
- mBCMA (MFI) Fold Increase [5]: 1.0 fold
- BCMA (Mean Fluorescence Intensity) 1 nM Compound (22) ([5]; 1 nM, 24 h): 464
- BCMA (Mean Fluorescence Intensity) 100 nM Compound (22) ([5]; 100 nM, 24 h): 462
- EC50 [5, 15]: > 10000 nM
- EC50 ([5]; read-out: mBCMA (MFI) EC50): > 10000 nM
- mBCMA (MFI) Fold Increase [6]: 10.8 fold
- BCMA (Mean Fluorescence Intensity) 1 nM Compound (22) ([6]; 1 nM, 24 h): 4899
- BCMA (Mean Fluorescence Intensity) 100 nM Compound (22) ([6]; 100 nM, 24 h): 10264
- EC50 [6, 15]: 1.4 nM
- EC50 ([6]; read-out: mBCMA (MFI) EC50): 1.4 nM
- mBCMA (MFI) Fold Increase [7]: 4.2 fold
- BCMA (Mean Fluorescence Intensity) 1 nM Compound (22) ([7]; 1 nM, 24 h): 1421
- BCMA (Mean Fluorescence Intensity) 100 nM Compound (22) ([7]; 100 nM, 24 h): 2242
- cell-bound BCMA ([7]; FIG. 7A): increased cell-bound BCMA
- EC50 [7, 15]: 4.9 nM
- EC50 ([7]; read-out: mBCMA (MFI) EC50): 4.9 nM
- mBCMA (MFI) Fold Increase (SUDHL-8 cells (DLBCL)): 1.7 fold
- BCMA (Mean Fluorescence Intensity) 1 nM Compound (22) (SUDHL-8 cells (DLBCL); 1 nM, 24 h): 350
- BCMA (Mean Fluorescence Intensity) 100 nM Compound (22) (SUDHL-8 cells (DLBCL); 100 nM, 24 h): 414
- EC50 (SUDHL-8 cells (DLBCL); SU-DHL-8, 24 h, read-out: BCMA (Mean Fluorescence Intensity) EC50): > 10000 nM
- EC50 (SUDHL-8 cells (DLBCL); SU-DHL-8, read-out: mBCMA (MFI) EC50): > 10000 nM
- mBCMA (MFI) Fold Increase (HT cells (DLBCL)): 3.2 fold
- BCMA (Mean Fluorescence Intensity) 1 nM Compound (22) (HT cells (DLBCL); 1 nM, 24 h): 488
- BCMA (Mean Fluorescence Intensity) 100 nM Compound (22) (HT cells (DLBCL); 100 nM, 24 h): 895
- EC50 (HT cells (DLBCL); [15]): 2.3 nM
- EC50 (HT cells (DLBCL); read-out: mBCMA (MFI) EC50): 2.3 nM
- mBCMA (MFI) Fold Increase [8]: 5.6 fold
- BCMA (Mean Fluorescence Intensity) 1 nM Compound (22) ([8]; 1 nM, 24 h): 41993
- BCMA (Mean Fluorescence Intensity) 100 nM Compound (22) ([8]; 100 nM, 24 h): 51080
- EC50 [8, 15]: 0.56 nM
- EC50 ([8]; read-out: mBCMA (MFI) EC50): 0.56 nM
- mBCMA (MFI) Fold Increase [9]: 1.1 fold
- BCMA (Mean Fluorescence Intensity) 1 nM Compound (22) ([9]; 1 nM, 24 h): 811
- BCMA (Mean Fluorescence Intensity) 100 nM Compound (22) ([9]; 100 nM, 24 h): 900
- EC50 [9, 15]: > 10000 nM
- EC50 ([9]; read-out: mBCMA (MFI) EC50): > 10000 nM
- mBCMA (MFI) Fold Increase [10]: 5.5 fold
- BCMA (Mean Fluorescence Intensity) 1 nM Compound (22) ([10]; 1 nM, 24 h): 6424
- BCMA (Mean Fluorescence Intensity) 100 nM Compound (22) ([10]; 100 nM, 24 h): 13506
- EC50 [10, 15]: 2.3 nM
- EC50 ([10]; read-out: mBCMA (MFI) EC50): 2.3 nM
- mBCMA (MFI) Fold Increase [11]: 1.0 fold
- BCMA (Mean Fluorescence Intensity) 1 nM Compound (22) ([11]; 1 nM, 24 h): 327
- BCMA (Mean Fluorescence Intensity) 100 nM Compound (22) ([11]; 100 nM, 24 h): 328
- EC50 ([11]; U-937, 24 h, read-out: BCMA (Mean Fluorescence Intensity) EC50): > 10000 nM
- EC50 ([11]; U-937, read-out: mBCMA (MFI) EC50): > 10000 nM
- mBCMA (MFI) Fold Increase [12]: 1.0 fold
- BCMA (Mean Fluorescence Intensity) 1 nM Compound (22) ([12]; 1 nM, 24 h): 440
- BCMA (Mean Fluorescence Intensity) 100 nM Compound (22) ([12]; 100 nM, 24 h): 445
- EC50 [12, 15]: > 10000 nM
- EC50 ([12]; read-out: mBCMA (MFI) EC50): > 10000 nM
- mBCMA (MFI) Fold Increase [13]: 7.0 fold
- BCMA (Mean Fluorescence Intensity) 1 nM Compound (22) ([13]; 1 nM, 24 h): 4437
- BCMA (Mean Fluorescence Intensity) 100 nM Compound (22) ([13]; 100 nM, 24 h): 21757
- EC50 [13, 15]: 3.1 nM
- EC50 ([13]; read-out: mBCMA (MFI) EC50): 3.1 nM
- EC50 ([14]; SUDHL-4 (Eurofins), read-out: mBCMA (MFI) EC50): 1.6 nM
- EC50 ([14]; SUDHL, 24 h, read-out: BCMA (Mean Fluorescence Intensity) EC50): 1.6 nM
- mBCMA (MFI) Fold Increase ([14]; SUDHL-4 (Eurofins)): 9.1 fold
- BCMA (Mean Fluorescence Intensity) 1 nM Compound (22) ([14]; SUDHL, 1 nM, 24 h): 7568
- BCMA (Mean Fluorescence Intensity) 100 nM Compound (22) ([14]; SUDHL, 100 nM, 24 h): 20540

— US20200085839A1, “COMBINATION OF IMMUNOTHERAPEUTICS AND BISFLUOROALKYL-1,4-BENZODIAZEPINONE COMPOUNDS FOR TREATING LYMPHOMAS” (Ayala Pharmaceuticals Inc., priority 2018, published 2020)
